Laboratory results as given in patent publication US7183445B2, “Cyclohexyl derivatives as selective estrogen receptor modulators” (Janssen Pharmaceutica N.V, priority 2004, dated 2007).
Where “and” joins values, the source holds several entries; their conditions need not be identical. Equal entries are not always repeated. Where two headings read alike, the source gives them in different places.

Tests used:
[1] = test system: Human Endometrial Ishikawa Cells; test: Alkaline Phosphatase Assay in Human Endometrial Ishikawa Cells; format: cell-based; settings: for EC50: read-out: Ishikawa Agonist EC50; for IC50: read-out: Ishikawa Antagonist IC50
Description: Alkaline Phosphatase Assay in Human Endometrial Ishikawa Cells
This assay was run according to the procedure described by Albert et a., Cancer Res, […], 50(11), 330-6-10, with minor modification.
Ishikawa cells (from ATCC) were maintained in DMEM/F12 (1:1) phenol red free medium (Gibco) supplemented with 10% calf serum (Hyclone). 24 hours prior to testing, the medium was changed to DMEM/F12 (1:1) phenol red free containing 2% calf serum.
Compounds to be tested in the agonist mode were added to the culture media at varying concentrations. Compounds to be treated in the antagonist mode were prepared similarly, and 10 nM 17β-estradiol was also added to the culture media. The cells were then incubated at 37° C. for 3 days. On the fourth day, the media was remove, 1 volume of 1× Dilution Buffer (Clontech) was added to the well followed by addition of 1 volume of Assay Buffer (Clontech). The cells were then incubated at room temperature for 5 minutes. 1 volume of freshly prepared Chemiluminescence Buffer (1 volume of chemiluminescent substrate (CSPD) in 19 volume Chemiluminescent Enhancer with final concentration of CSPD at 1.25 mM; Sigma Chemical Co.) was added. The cells were incubated at room temperature for 10 minutes and then quantified on a luminometer. The increase of chemiluminescence over vehicle control was used to calculate the increase in alkaline phosphatase activity.
(§1) Representative compound of the present invention were tested according to the procedure described in Examples 14 and 15 above, with results as listed in Table. 7.

[2] = molecular target: T1, hER-β (Homo sapiens, UniProt Q92731); test: Estrogen Receptor β Fluorescence Polarization Assay; settings: displacement of Fluormone ES2, fluorescence polarization; read-out: ERβ Binding IC50
T1 construct: purchased Panvera
T1 sequence (Q92731 whole entry): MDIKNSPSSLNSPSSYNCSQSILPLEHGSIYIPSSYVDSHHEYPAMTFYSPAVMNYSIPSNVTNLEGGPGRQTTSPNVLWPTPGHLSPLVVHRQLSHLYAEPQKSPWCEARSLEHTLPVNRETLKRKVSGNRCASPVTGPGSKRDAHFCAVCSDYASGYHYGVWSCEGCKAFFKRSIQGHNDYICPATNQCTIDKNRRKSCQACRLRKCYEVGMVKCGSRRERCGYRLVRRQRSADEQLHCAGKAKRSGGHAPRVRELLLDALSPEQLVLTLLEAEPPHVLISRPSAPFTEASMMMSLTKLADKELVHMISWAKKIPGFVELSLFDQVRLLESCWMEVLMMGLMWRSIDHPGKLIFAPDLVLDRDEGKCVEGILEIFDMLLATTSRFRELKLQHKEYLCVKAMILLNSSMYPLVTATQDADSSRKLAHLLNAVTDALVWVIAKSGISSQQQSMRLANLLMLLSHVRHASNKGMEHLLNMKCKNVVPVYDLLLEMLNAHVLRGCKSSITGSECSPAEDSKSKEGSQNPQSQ
Excerpt: Estrogen Receptor β Fluorescence Polarization Assay
This assay monitors binding of a fluorescent analog of estrogen (Fluormone ES2, Panvera) to the estrogen receptor. Plates are read in a fluorometer that can be set to polarization mode. A decrease in […] relative to vehicle control is an indication of binding of a compound to the receptor.
It is crucial to avoid introduction of air bubbles into the reaction in each well of the 96 well plate throughout this procedure. (Bubbles on the surface of the reaction disrupt light flow, affecting the polarization reading.) However, it is also crucial to effectively mix the reaction components upon addition to the well.
On ice, a 2× standard mixture of Assay Buffer (Panvera), 10 nM DTT and 40 nM ES2 was prepared. On ice, a 2× reaction mixture of Assay Buffer (Panvera), and 20 nM hER-β (Panvera) and 40 nM ES2 was also prepared.
Dilutions of test compound were prepared in 30% (v/v) dimethyl sulfoxide/50 mM HEPES, pH 7.5. At this point, the dilutions were 40× the final required concentration.
The standard mixture at 50 μL was then added to each well. The reaction mixture at 48 μL was added to all wells. The compound dilution at 2.5 μL was added to the appropriate wells. The reaction mixtures were mixed using a manual pipette, a roll of aluminum foil adhesive cover was placed on the plate and the plate incubated at room temperature for 1 hour.
Each well on the plate was then read in an LjL Analyst with an excitation wavelength of […] and an emission wavelength of 538.
(§2) Representative compound of the present invention were tested according to the procedure described above for binding to the Estrogen Receptor α and Estrogen Receptor β, with results as listed in Table 6.

[3] = test system: MCF-7 cells; test: MCF-7 Cell Proliferation Assay; format: cell-based
Description: MCF-7 Cell Proliferation Assay
This assay was run according to the procedure described by Welshons, et al., (Breast Cancer Res. Treat., 1987, 10(2), 169–75), with minor modification.
Briefly, MCF-7 cells (from Dr. C. Jordan, Northwestern University) were maintained in RPMI 1640 phenol red free medium (Gibco) in 10% FBS (Hyclone), supplemented with bovine insulin and non-essential amino acid (Sigma). The cells were initially treated with 4-hydroxytamoxifen (10^−8 M) and let stand at 37° C. for 24 hours. Following this incubation with tamoxifen, the cells were treated with compounds at various concentrations.
Compounds to be tested in the agonist mode were added to the culture media at varying concentrations. Compounds to be treated in the antagonist mode were prepared similarly, and 10 nM 17β-estradiol was also added to the culture media. The cells were incubated for 24 hours at 37° C. Following this incubation, 0.1 μCi of ^14C-thymidine (56mCi/mmol, Amersham) was added to the culture media and the cells were incubated for an additional 24 hours at 37° C. The cells were then washed twice with Hank's buffered salt solution (HBSS) (Gibco) and counted with a scintillation counter. The increase in the ^14C-thymidine in the compound treated cells relative to the vehicle control cells were reported as percent increase in cell proliferation.
as §1

[4] = molecular target: T2, human estrogen receptor α (Homo sapiens, UniProt P03372); test: Estrogen Receptor α Flash Plate Assay; settings: displacement of radio-labeled estrogen, FlashPlate; read-out: ERα Binding IC50
T2 construct: purchased Panvera
T2 sequence (P03372 1-595): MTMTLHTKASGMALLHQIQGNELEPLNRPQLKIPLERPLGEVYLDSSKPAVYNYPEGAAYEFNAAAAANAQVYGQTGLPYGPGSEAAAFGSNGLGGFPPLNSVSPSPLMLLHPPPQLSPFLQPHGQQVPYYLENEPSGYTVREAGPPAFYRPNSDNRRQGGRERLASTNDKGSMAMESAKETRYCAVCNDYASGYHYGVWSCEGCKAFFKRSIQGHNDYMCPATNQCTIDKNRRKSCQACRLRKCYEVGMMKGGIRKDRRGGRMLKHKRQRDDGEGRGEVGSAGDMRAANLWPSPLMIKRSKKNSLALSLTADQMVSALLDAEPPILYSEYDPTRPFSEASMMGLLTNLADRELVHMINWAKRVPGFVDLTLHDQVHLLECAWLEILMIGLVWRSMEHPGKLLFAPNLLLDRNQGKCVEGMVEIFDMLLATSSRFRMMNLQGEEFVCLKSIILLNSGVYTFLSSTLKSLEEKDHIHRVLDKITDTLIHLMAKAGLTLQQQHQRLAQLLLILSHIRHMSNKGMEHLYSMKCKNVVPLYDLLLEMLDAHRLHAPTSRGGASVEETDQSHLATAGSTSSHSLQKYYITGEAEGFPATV
Description: Estrogen Receptor α Flash Plate Assay
This assay monitors binding of radio-labeled estrogen to the estrogen receptor. It is performed on a BioMek 2000 (Beckman). Plates are read in a scintillation counter (Packard TopCount), with decreased counts an indication of binding of a compound to the receptor. The assay was run according to the procedure described by Allan, et al., Anal. Biochem. (1999), 275(2), 243–247.
On day one, 100 μL of Estrogen Screening Buffer (ESB, Panvera) containing 5 mM dithiothreitol (DTT, Panvera), 0.5 μg mouse anti-estrogen receptor monoclonal antibody (SRA-1010, Stressgen) and 50 ng purified human estrogen receptor α (Panvera) were added to each well of a 96 well FlashPlate Plus plate crosslinked with goat anti-mouse antibodies (NEN Life Sciences). The plate was sealed and incubated at 4° C. overnight.
On day two, each well was washed three times with 200 μL PBS, pH 7.2, at room temperature. To each well was then added 98 μL radio-labeled estrogen (0.5 nM, which equals 6 nCi for a 120 Ci/mmol batch, Amersham), diluted in ESB and 5 mM dithiothreitol (DTT). To individual wells were then added 2.5 μL test compound diluted in 30% (v/v) dimethyl sulfoxide/50 mM HEPES, pH 7.5. The wells were mixed three times by aspiration, the plate sealed and incubated at room temperature for one hour. The wells were then counted for 1 min in a TopCount scintillation counter (Packard).
as §2

[5] = Homo sapiens, Ishikawa, 72 h, agonist mode, alkaline phosphatase activity, 3 days
[6] = Homo sapiens, Ishikawa, 72 h, antagonist mode, 10 nM 17β-estradiol added, alkaline phosphatase activity, 3 days
[7] = Homo sapiens, MCF7, agonist mode, 14C-thymidine incorporation, read-out: MCF7 Agonist EC50
[8] = Homo sapiens, MCF7, antagonist mode, 10 nM 17β-estradiol added, 14C-thymidine incorporation, read-out: MCF7 Antagonist IC50

Compound | IC50 [2] | IC50 [4] | EC50 [1, 5] | IC50 [1, 6] | EC50 [3, 7] | IC50 [3, 8] | other results
4-(4-Hydroxy-phenyl)-[4-(2-morpholin-4-yl-ethoxy)-benzyl]-methyl-cyclohex-3-enecarboxylic acid ethyl ester [Compound 38] | 0.9 µM and 0.5 µM |  |  |  |  |  | EC50 ([1]; agonist mode, alkaline phosphatase activity, 3 days): > 10 µM; IC50 ([1]; antagonist mode, 10 nM 17β-estradiol added, alkaline phosphatase activity, 3 days): 2.1 µM; EC50 ([3]; agonist mode, 14C-thymidine incorporation, read-out: MCF7 Agonist EC50): > 10 µM; IC50 ([3]; antagonist mode, 10 nM 17β-estradiol added, 14C-thymidine incorporation, read-out: MCF7 Antagonist IC50): 5 µM
CN(C)CCOc1ccc(C2=C(c3ccc(O)cc3)CCC(C)(CO)C2)cc1 (centres unmarked) [Compound 3, 4-{2-[4-(2-Dimethylamino-ethoxy)-phenyl]-4-hydroxymethyl-4-methyl-cyclohex-1-enyl}-phenol] | 5.7 µM | 6.1 µM |  |  |  |  | 
CCC1C(C)C(CO)CC(c2ccc(OC)cc2)C1c1ccc(O)cc1 (centres unmarked) [Compound 4, 4-[2-Ethyl-4-hydroxymethyl-6-(4-methoxy-phenyl)-3-methyl-cyclohexyl]-phenol] | 1.6 µM | > 10 µM |  |  |  |  | EC50 ([1]; Homo sapiens, Ishikawa, 72 h): > 10 µM; IC50 ([1]; Homo sapiens, Ishikawa, 72 h): > 10 µM; EC50 ([3]; Homo sapiens, MCF7, read-out: MCF7 Agonist EC50): > 10 µM; IC50 ([3]; Homo sapiens, MCF7, read-out: MCF7 Antagonist IC50): > 10 µM
OC[C@@H]1CC(c2ccccc2)=C(c2ccccc2)C[C@@H]1CO [Compound 18] | < 10 µM | > 10 µM | > 10 µM | > 10 µM | > 10 µM | > 10 µM | 
CCC1C(c2ccc(O)cc2)=C(c2ccc(OC)cc2)CC(CO)C1C (centres unmarked) [Compound 20, 4-[6-Ethyl-4-hydroxymethyl-2-(4-methoxy-phenyl)-5-methyl-cyclohex-1-enyl]-phenol] | 0.1 µM | 1.85 µM | 0.7 µM | 4.5 µM | 0.48 µM | > 10 µM | 
CC1(CO)CC=C(c2ccc(O)cc2)CC1 (centres unmarked) [Compound 25, 4-(4-Hydroxymethyl-4-methyl-cyclohex-1-enyl)-phenol] | 0.35 µM | 0.45 µM | 0.1 µM | 10 µM | 0.2 µM | > 10 µM | 
COc1ccc(C2=C(c3ccc(OC)cc3)CC(CO)C(CO)C2)cc1 (centres unmarked) [Compound 26, [6-Hydroxymethyl-3,4-bis-(4-methoxy-phenyl)-cyclohex-3-enyl]-methanol] | > 10 µM | > 10 µM | > 10 µM | > 10 µM | > 10 µM | > 10 µM | 

Continued, in another order:

IC50 [2] | IC50 [4] | EC50 [1, 5] | IC50 [1, 6] | EC50 [3, 7] | IC50 [3, 8] | Compound | other results
1.5 µM | 0.5 µM | > 10 µM | > 10 µM | > 10 µM | > 10 µM | CC1(CO)CCC(c2ccc(O)cc2)=C(c2ccc(O)cc2)C1 (centres unmarked) [Compound 27, (1-methyl-3,4-di(4-hydroxy-phenyl)-cyclohex-3-enyl)-methanol] | 
6.9 µM | > 10 µM |  |  |  |  | CC1=C(C)CC(C)(CO)C(C)C1 (centres unmarked) [Compound 36] | 
> 10 µM | > 10 µM | > 10 µM | > 10 µM | > 10 µM | > 10 µM | CCOC(=O)C1CC=C(c2ccc(OC)cc2)C(Cc2ccc(OCCN3CCCCC3)cc2)C1C (centres unmarked) [Compound 39] | 
5.7 µM | > 10 µM | > 10 µM | > 10 µM | > 10 µM | > 10 µM | c1ccc(C2=C(c3ccccc3)CC3COCC3C2)cc1 (centres unmarked) [Compound 52] | 
 |  | > 10 µM | > 10 µM | > 10 µM | > 10 µM | O=C1CCCC2CC(c3ccccc3)=C(c3ccccc3)CC12 (centres unmarked) [Compound 56, 6,7-Diphenyl-3,4,4a,5,8,8a-hexahydro-2H-naphthalen-1-one] | 
4.9 µM | > 10 µM |  |  |  |  | COc1ccc(C2=C(c3ccc(OC)cc3)C[C@H]3[C@H](CC[C@H]3O)C2)cc1 [Compound 57, 5,6-Bis-(4-methoxy-phenyl)-2,3,3a,4,7,7a-hexahydro-1H-inden-1R-ol] | 
2 µM | 8.7 µM | > 10 µM | > 10 µM | > 10 µM | > 10 µM | COc1ccc(C2=C(c3ccc(OC)cc3)CC3C(CC[C@@H]3O)C2)cc1 (stereo partly drawn) [Compound 61, 5,6-Bis-(4-methoxy-phenyl)-2,3,3a,4,7,7a-hexahydro-1H-inden-1S-ol] | 
0.38 µM | 0.37 µM |  |  |  |  | CC1C(CO)CC=C(c2ccc(O)cc2)C1Cc1ccc(OCCN2CCCCC2)cc1 (centres unmarked) [Compound 74] | 
